Measured values: patent publication US12152049B2, “STING agonistic compound” (ONO PHARMACEUTICAL CO., LTD., priority 2018, dated 2024)
Structures can show the parent of a compound that is named as a salt.

Tests used:
[1] = tested on: THP1-Dual cells; experiment: Effects on THP1-Dual cells: activation of the IRF pathway (Quanti-luc luminescence); assay type: cell-based; conditions: Homo sapiens, incubation about 24 hours
Experimental: THP1-Dual cells (Invivogen) were suspended in RPMI medium to prepare 2×10^6 cells/mL of cell suspension. 50 μL of the cell suspensions were dispensed into a 96-well plate, to which 50 μL of 6 to 20,000 nmol/L compound solutions were added. After adding the compound, the mixture was incubated at 37° C. for about 24 hours. After incubation, 10 μL of cell suspensions were collected from the respective wells, which were mixed with 50 μL of Quanti-luc (Invivogen). Then, the activation of the IRF (Interferon regulatory factor) pathway was measured by detecting luminescence using a microplate reader (Molecular Devices).

[2] = tested on: mouse colon cancer cell line MC38; experiment: Anti-tumor effect in tumor model bearing subcutaneous mouse colon cancer cell line MC38; assay type: in vivo, mice (C57/BL6); conditions: 3 mg/kg, administered 7 days after MC38 transplantation, measured until Day 26
Experimental: Colon cancer cell line MC38 derived from C57/BL6 mice were subcutaneously transplanted to right flank of syngeneic mice (C57/BL6, female, 6 weeks old (Charles River Japan)) (herein, the day of transplantation was Day 0) to prepare tumor mice bearing subcutaneous MC38. Seven days after transplantation, tumor mice bearing subcutaneous MC38 were grouped based on tumor volume, and used as the Vehicle group (n=8) and the compound administration group (3 mg/kg, n=6) shown in Example 1. The changes in tumor volume were continuously measured until the 26 days after transplantation (Day 26). The tumor volume was calculated by the following formula: [Tumor volume (mm^3)]=[major axis (mm)]×[minor axis (mm)]^2×0.5
Colon cancer cell line MC38 derived from C57/BL6 mice were subcutaneously transplanted to right flank of syngeneic mice (C57/BL6, female, 6 weeks old (Charles River Japan)) (herein, the day of transplantation was Day 0) to prepare tumor mice bearing subcutaneous MC38. They were grouped based on tumor volume 7 or 8 days after transplantation, to which the Vehicle (n=8 or 6) and the respective compounds of Examples 10 and 10(1) to 10(6) (1, 1, 1, 10, 3, 1 and 1 mg/kg, n=8 or 6) were administered. The changes in tumor volume were measured serially until the 28 or 30 days after transplantation (Day 28 or 30). The tumor volume was calculated from the formula shown in Example 16.

[3] = target: T1, IDO1 (Homo sapiens, UniProt P14902); experiment: Evaluation of IDO1 inhibitory activity (IDO1 Fluorogenic Inhibitor Screening Assay Kit); assay type: biochemical; conditions: compound solutions of 0.6, 2, 6, 20, 60 and 200 μmol/L added
T1 construct: His-tag; purchased BPS Bioscience
T1 sequence (P14902 whole entry): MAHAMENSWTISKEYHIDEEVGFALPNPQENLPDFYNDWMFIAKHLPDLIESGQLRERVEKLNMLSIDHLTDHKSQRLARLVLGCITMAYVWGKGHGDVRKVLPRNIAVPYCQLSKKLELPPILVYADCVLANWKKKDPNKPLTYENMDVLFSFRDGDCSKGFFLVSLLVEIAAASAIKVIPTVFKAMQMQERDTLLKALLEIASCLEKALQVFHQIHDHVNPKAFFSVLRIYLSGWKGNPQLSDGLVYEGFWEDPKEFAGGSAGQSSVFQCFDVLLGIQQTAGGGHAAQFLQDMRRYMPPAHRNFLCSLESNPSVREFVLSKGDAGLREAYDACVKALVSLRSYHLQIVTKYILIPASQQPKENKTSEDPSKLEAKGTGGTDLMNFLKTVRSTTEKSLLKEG
Experimental: The evaluation of IDO1 inhibitory activity was carried out using the IDO1 Fluorogenic Inhibitor Screening Assay Kit (BPS Bioscience). Specifically, IDO1 Fluorogenic Reaction Solution was dissolved, of which 180 μL were added to each well. Then, 10 μL of compounds at the respective concentrations of 0.6, 2, 6, 20, 60 and 200 μmol/L were added thereto. Further, after adding 10 μL of IDO1 His-Tag solution thereto, of which the mixtures were incubated at room temperature for 1 hour, and then 20 μL of Fluorescence Solution was added thereto, of which the mixtures were incubated at 37° C. for 4 hours. After standing them at room temperature for 10 minutes, the fluorescence was measured using a microplate reader (excitation: 400 nm, emission: 510 nm).

[4] = tested on: BTK, KDR, each subtype of PKCα to ι, each CDK of CDK2 to 9, FAK, TIE2, RAF1 and BRAF; experiment: Evaluation of inhibitory activity against various kinases (mobility shift, LabChip); assay type: biochemical; conditions: 4 μmol/L test substance solution (4 times the final concentration)
Experimental: 4 μmol/L of test substance solution (the compound of the present invention shown in Example 1) (at 4 times the final concentration) was prepared by dissolving it to the assay buffer (20 mmol/L HEPES, 0.01% Triton X-100, 1 mmol/L DTT, pH 7.5). 4 μmol/L of substrate/ATP/metal solution (at 4 times the final concentration) was prepared by dissolving them to the kit buffer (20 mmol/L HEPES, 0.01% Triton X-100, 5 mmol/L DTT, pH 7.5).
Various kinase solutions at twice the final concentration were prepared by dissolving them to the assay buffer. 5 μL of the test substance solution, 5 μL of the substrate/ATP/metal solution and 10 μL of the kinase solution were mixed in wells of a polypropylene 384-well plate, of which the mixture was reacted at room temperature for 1 to 5 hours. The reaction was stopped by adding 70 μL of the termination buffer (QuickScout Screening Assist MSA; Cama Biosciences). The substrate peptide and phosphorylated peptide in the reaction solution were separated and quantified by LabChip system (Perkin Elmer). The kinase reaction was evaluated by the product ratio (P/(P+S)) calculated from the peak height (S) of the substrate peptide and the peak height (P) of the phosphorylated peptide. The various kinases used for evaluation are as follows:
BTK, KDR, each subtype of PKCα to ι, each CDK of CDK2 to 9, FAK, TIE2, RAF1 and BRAF.

[5] = tested on: THP1-Dual-STING KO cells; experiment: Activity on THP1-Dual-STING KO cells: IRF pathway (Quanti-luc luminescence); assay type: cell-based; conditions: STING gene homozygous deficient THP1-Dual cells, 6 to 20,000 nM compound solutions, about 24 hours
Experimental: STING gene homozygous deficient THP1-Dual cells (THP1-Dual-STING KO cells (Invivogen) were suspended in RPMI medium to prepare 2×10^6 cells/mL cell suspension. 50 μL of cell suspensions were dispensed into a 96-well plate, to which 50 μL of 6 to 20,000 nM compound solutions were further added, followed by incubation at 37° C. for about 24 hours. 10 μL of the cell suspensions were collected from the respective wells, which were mixed with 50 μL of Quanti-luc (Invivogen), and then the activity of the IRF pathway was measured by detecting luminescence using a microplate reader.

Structure (SMILES) | EC50 [1] [nM] | also measured
CC(=O)c1cc(-c2ncc(-c3cn[nH]c3)c3onc(N)c23)c(F)cc1N [Example 3, 1-(2-amino-5-(3-amino-7-(1H-pyrazol-4-yl)isoxazolo[4,5-c]pyridin-4-yl)-4-fluorophenyl)ethan-1-one] | 40 | –
CSc1cc(-c2ncc(-c3cn[nH]c3)c3onc(N)c23)c(Cl)cc1N [Example 4(16), 4-(4-amino-2-chloro-5-(methylthio)phenyl)-7-(1H-pyrazol-4-yl)isoxazolo[4,5-c]pyridin-3-amine hydrochloride] | 1000 | –
CCNC(=O)c1cc(-c2ncc(-c3cn[nH]c3)c3onc(N)c23)c(F)cc1N [Example 4(8), 2-amino-5-(3-amino-7-(1H-pyrazol-4-yl)isoxazolo[4,5-c]pyridin-4-yl)-N-ethyl-4-fluorobenzamide hydrochloride] | 20 | –
NC(=O)c1cc(-c2ncc(-c3cn[nH]c3)c3onc(N)c23)c(F)cc1N [Example 4(5), 2-amino-5-(3-amino-7-(1H-pyrazol-4-yl)isoxazolo[4,5-c]pyridin-4-yl)-4-fluorobenzamide hydrochloride] | 80 | –
CSc1cc(-c2ncc(-c3cn[nH]c3)c3onc(N)c23)c(F)cc1N [Example 4, 4-(4-amino-2-fluoro-5-(methylthio)phenyl)-7-(1H-pyrazol-4-yl)isoxazolo[4,5-c]pyridin-3-amine hydrochloride] | 90 | –
CCOC(=O)c1cc(-c2ncc(-c3cn[nH]c3)c3onc(N)c23)c(F)cc1N [Example 4(6), ethyl 2-amino-5-(3-amino-7-(1H-pyrazol-4-yl)isoxazolo[4,5-c]pyridin-4-yl)-4-fluorobenzoate hydrochloride] | 40 | –

More lines, in order of falling EC50 [1], values ahead:

EC50 [1] [nM] | Structure (SMILES) | also measured
1930 | COc1cc(-c2ncc(-c3cn[nH]c3)c3onc(N)c23)c(F)cc1N [Example 2, 4-(4-amino-2-fluoro-5-methoxyphenyl)-7-(1H-pyrazol-4-yl)isoxazolo[4,5-c]pyridin-3-amine hydrochloride] | –
950 | CS(=O)(=O)c1cc(-c2ncc(-c3cn[nH]c3)c3onc(N)c23)c(F)cc1N [Example 4(3), 4-(4-amino-2-fluoro-5-(methylsulfonyl)phenyl)-7-(1H-pyrazol-4-yl)isoxazolo[4,5-c]pyridin-3-amine hydrochloride] | –
180 | COC(=O)c1cc(-c2ncc(-c3cn[nH]c3)c3onc(N)c23)c(F)cc1N [Example 1, methyl 2-amino-5-(3-amino-7-(1H-pyrazol-4-yl)isoxazolo[4,5-c]pyridin-4-yl)-4-fluorobenzoate] | tumor growth (tumor volume) [2]: almost completely suppressed the tumor growth; IDO1 inhibitory activity [3]: did not show any IDO1 inhibitory activity; inhibitory activity against the evaluated kinases [4]: did not showed any significantly inhibit activities; IRF activating effect [5]: no IRF activating effect
130 | CC(=O)c1cc(-c2ncc(-c3cn[nH]c3)c3onc(N)c23)ccc1N [Example 4(9), 1-(2-amino-5-(3-amino-7-(1H-pyrazol-4-yl)isoxazolo[4,5-c]pyridin-4-yl)phenyl)ethan-1-one hydrochloride] | –
100 | CNC(=O)c1cc(-c2ncc(-c3cn[nH]c3)c3onc(N)c23)ccc1N [Example 4(15), 2-amino-5-(3-amino-7-(1H-pyrazol-4-yl)isoxazolo[4,5-c]pyridin-4-yl)-N-methylbenzamide hydrochloride] | –
20 | CCC(=O)c1cc(-c2ncc(-c3cn[nH]c3)c3onc(N)c23)c(F)cc1N [Example 4(7), 1-(2-amino-5-(3-amino-7-(1H-pyrazol-4-yl)isoxazolo[4,5-c]pyridin-4-yl)-4-fluorophenyl)propan-1-one hydrochloride] | –
